Tested on: T1, 20S proteasome
T1 construct: gene PSMB5; endogenous proteasome of COS-7 cells expressing OAT3; with Proteasome subunit beta type-6; Proteasome subunit beta type-7; Proteasome subunit beta type-1; Proteasome subunit beta type-2; Proteasome subunit beta type-3; Proteasome subunit beta type-4; Proteasome subunit alpha type-1; Proteasome subunit alpha type-2; Proteasome subunit alpha type-3; Proteasome subunit alpha type-4; Proteasome subunit alpha type-5; Proteasome subunit alpha type-6; Proteasome subunit alpha type-7
Assay: […] proteasome assay kit (fluorescence) after treatment of intact cells
Type: cell-based
Details: OAT3-expressing COS-7 cells treated 4 h; range over 10-100 µM; direct binding not shown

## CCN(CCO)CCCC(C)Nc1ccnc2cc(Cl)ccc12 (stereo not shown) [Hydroxychloroquine]
  % inhibition at 10-100 μM: 23–61%

— paper PMC10303059, “Chloroquine and Hydroxychloroquine, as Proteasome Inhibitors, Upregulate the Expression and Activity of Organic Anion Transporter 3” (Pharmaceutics, 2023)
